According to PubChem BioAssay AID248 (DTP/NCI, 2004):
Where “and” joins values, the source holds several entries; their conditions need not be identical. Equal values may be shown once. Toxic doses and inconclusive results are not listed. Cut-off read from the data, not from the text of the source: active = T/C of 150% or more; inactive = T/C below 125%.

System: L1210 leukemia ip in BDF1 mice, survival T/C
Experiment: NCI In Vivo Anticancer Drug Screen. Data for tumor model L1210 Leukemia (intraperitoneal) in B6D2F1 (BDF1) mice
Conditions: endpoint: mean survival time, higher = longer survival
Outline: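 Tumor was transplanted into mice, which were then dosed with test compound or vehicle alone. Survival was recorded for each group, and the treated figure was expressed relative to the control figure.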

[1] = dose: 100.0 mg/kg/injection, schedule: Q04DX002 (ip), vehicle: saline with Tween-80
[2] = dose: 200.0 mg/kg/injection, schedule: Q04DX002 (ip), vehicle: saline with Tween-80
[3] = dose: 400.0 mg/kg/injection, schedule: Q04DX002 (ip), vehicle: saline with Tween-80

Measured: T/C

CCOC(=O)C1CCc2c(ccc3ccccc23)N1CCC#N (stereo not drawn)
inactive: dose: 100.0 mg/kg/injection, schedule: Q01DX009 (ip), vehicle: carboxymethylcellulose (CMC) 95 % of control and 101 % of control | dose: 100.0 mg/kg/injection, schedule: Q04DX002 (ip), vehicle: carboxymethylcellulose (CMC) 97 % of control | dose: 100.0 mg/kg/injection, schedule: Q04DX003 (ip), vehicle: carboxymethylcellulose (CMC) 105 % of control | dose: 200.0 mg/kg/injection, schedule: Q01DX009 (ip), vehicle: carboxymethylcellulose (CMC) 98 % of control and 88 % of control | dose: 200.0 mg/kg/injection, schedule: Q04DX002 (ip), vehicle: carboxymethylcellulose (CMC) 91 % of control | dose: 200.0 mg/kg/injection, schedule: Q04DX003 (ip), vehicle: carboxymethylcellulose (CMC) 101 % of control | dose: 400.0 mg/kg/injection, schedule: Q01DX009 (ip), vehicle: carboxymethylcellulose (CMC) 97 % of control and 107 % of control | dose: 400.0 mg/kg/injection, schedule: Q04DX002 (ip), vehicle: carboxymethylcellulose (CMC) 97 % of control | dose: 400.0 mg/kg/injection, schedule: Q04DX003 (ip), vehicle: carboxymethylcellulose (CMC) 110 % of control

O=Cc1cc(Br)c(O)c(Br)c1
inactive: dose: 50.0 mg/kg/injection, schedule: Q04DX003 (ip), vehicle: Klucel (hydroxypropylcellulose) (HPC) 100 % of control | dose: 100.0 mg/kg/injection, schedule: Q04DX003 (ip), vehicle: Klucel (hydroxypropylcellulose) (HPC) 101 % of control | dose: 200.0 mg/kg/injection, schedule: Q04DX003 (ip), vehicle: Klucel (hydroxypropylcellulose) (HPC) 100 % of control

O=[N+]([O-])c1ccc(OC(=S)N2CCOCC2)cc1
inactive: [1] 104 % of control | [2] 104 % of control | [3] 101 % of control

CCCCCCCN1CCCC(OC(=O)N(C)C)C1 (stereo not drawn)
inactive: dose: 25.0 mg/kg/injection, schedule: Q04DX002 (ip), vehicle: saline 110 % of control | dose: 50.0 mg/kg/injection, schedule: Q04DX002 (ip), vehicle: saline 103 % of control | dose: 100.0 mg/kg/injection, schedule: Q04DX002 (ip), vehicle: saline 110 % of control and 89 % of control

CC(=O)NC(C)(NC(=O)CCl)C(=O)O (stereo not drawn)
inactive: dose: 100.0 mg/kg/injection, schedule: Q01DX001 (ip), vehicle: saline with Tween-80 98 % of control | dose: 100.0 mg/kg/injection, schedule: Q01DX009 (ip), vehicle: saline with Tween-80 94 % of control and 108 % of control | [1] 96 % of control and 101 % of control | dose: 100.0 mg/kg/injection, schedule: Q04DX003 (ip), vehicle: saline with Tween-80 106 % of control | dose: 200.0 mg/kg/injection, schedule: Q01DX001 (ip), vehicle: saline with Tween-80 102 % of control | dose: 200.0 mg/kg/injection, schedule: Q01DX009 (ip), vehicle: saline with Tween-80 89 % of control and 90 % of control | [2] 93 % of control and 104 % of control | dose: 200.0 mg/kg/injection, schedule: Q04DX003 (ip), vehicle: saline with Tween-80 98 % of control | dose: 400.0 mg/kg/injection, schedule: Q01DX001 (ip), vehicle: saline with Tween-80 107 % of control | dose: 400.0 mg/kg/injection, schedule: Q01DX009 (ip), vehicle: saline with Tween-80 97 % of control | [3] 95 % of control and 101 % of control

O=C(O)c1ccccc1C1C=CCCC1 (stereo not drawn)
inactive: [1] 101 % of control | [2] 101 % of control | [3] 104 % of control

C[n+]1cccc(C#N)c1
inactive: dose: 37.5 mg/kg/injection, schedule: Q04DX003 (ip), vehicle: saline 100 % of control | dose: 75.0 mg/kg/injection, schedule: Q01DX001 (ip), vehicle: saline 106 % of control | dose: 75.0 mg/kg/injection, schedule: Q04DX003 (ip), vehicle: saline 107 % of control | dose: 150.0 mg/kg/injection, schedule: Q01DX001 (ip), vehicle: saline 106 % of control | dose: 150.0 mg/kg/injection, schedule: Q04DX003 (ip), vehicle: saline 91 % of control

CCC[CH2][Sn]1([CH2]CCC)[O]OC(c2ccc(C(=O)OCC)cc2)[O]1 (stereo not drawn)
inactive: dose: 6.25 mg/kg/injection, schedule: Q04DX002 (ip), vehicle: other 102 % of control

CC(C)COC(=O)c1ccc(NC(=S)Nc2ccccc2)cc1
inactive: dose: 100.0 mg/kg/injection, schedule: Q01DX009 (ip), vehicle: Klucel (hydroxypropylcellulose) (HPC) 93 % of control | dose: 200.0 mg/kg/injection, schedule: Q01DX009 (ip), vehicle: Klucel (hydroxypropylcellulose) (HPC) 93 % of control

CCOCc1cn(CCCc2ccccc2)c(=O)[nH]c1=O
inactive: dose: 12.5 mg/kg/injection, schedule: Q04DX002 (ip), vehicle: Klucel (hydroxypropylcellulose) (HPC) 106 % of control | dose: 25.0 mg/kg/injection, schedule: Q04DX002 (ip), vehicle: Klucel (hydroxypropylcellulose) (HPC) 102 % of control | dose: 50.0 mg/kg/injection, schedule: Q04DX002 (ip), vehicle: Klucel (hydroxypropylcellulose) (HPC) 106 % of control
